The target in test [1] is T1, recombinant human Wee1A kinase (Homo sapiens, UniProt P30291).
T1 construct: full length Wee1A kinase was expressed by baculovirus in insect cells; purchased Invitrogen PV3817; host or cells: insect cells (baculovirus)
The test can be described thus: LanthaScreen Europium (Eu) Kinase Binding Assay, Wee1A kinase (TR-FRET tracer displacement). The note with it: 30 nM tracer 178, 5 nM Wee1A kinase, 60 minutes at room temperature. The source says:
We used a LanthaScreen Europium (Eu) Kinase Binding Assay to determine the binding of provided compounds to Wee1A kinase. The assay utilizes an Alexa Fluor 647-labeled ATP competitive kinase tracer that binds to the ATP binding site of a GST-tagged Wee1A kinase, while a europium (Eu) labeled antibody binds to the GST tag. The proximity of fluorescently labeled kinase tracer and europium (Eu) donor fluorophore antibody leads to fluorescence resonance energy transfer (FRET) to the fluorescence label (acceptor) upon excitation of the Eu (donor). Displacement of tracer from the ATP-binding site by a test compound disturbs the proximity between both labels thus lowering the FRET.
This time resolved-FRET binding assay was performed in white 384-well low volume plates (Greiner, cat #784075), at room temperature in kinase buffer A (KBA; Invitrogen cat #PV3189), consisting of 50 mM HEPES-NaOH (pH 7.5), 0.01% Brij-35, 10 mM MgCl2, and 1 mM EGTA. 5 μl of compound (diluted in reaction buffer, to 1% DMSO) were added to various wells in the plate, followed by 5 μl each of recombinant human Wee1A kinase (full length Wee1A kinase was expressed by baculovirus in insect cells using a N-terminal GST tag (MW: 99.1 kDa) (Invitrogen cat #PV3817) and LanthaScreen Eu-anti-GST antibody (Invitrogen, cat #PV5594). After this, 5 μl of kinase tracer 178 (Invitrogen, cat #PV5593) was added to the plate and the plate was incubated for 60 minutes at room temperature. The final assay conditions in each well were: 30 nM tracer 178, 5 nM Wee1A kinase and 2 nM Eu-labeled antibody in total assay volume of 15 μl. An Envision 2104 (Perkin-Elmer) Plate Reader with the following time-resolve fluorescence setting was used for performing LanthaScreen kinase binding assay. • Excitation 320 nm (30 nm bandpass) • Kinase Tracer Emission 665 nm (10 nm bandpass) • LanthaScreen Eu-anti-Tag Antibody Emission 615 nm (10 nm bandpass) • Dichroic Mirror Instrument dependent • Delay Time 100 μs • Integration Time 200 μs
To calculate the emission ratio, the acceptor/tracer emission ([…]) was divided by the antibody/donor emission ([…]) and the average of duplicate measurement was used for calculations. Data plotting, analysis of binding, and curve fitting was done using Excel add-in XLfit version 5.5.0.5 (IDBS, Guildford, United Kingdom).

Test [2] has as its system Cdk1 phosphorylated on tyrosine 15. Put plainly: High-content imaging of pCdk1 Y15 by immunofluorescence in ACHN cells. The class given is cell-based. Particulars: Homo sapiens, high-content imaging (IF), 4 h, 7 to 5000 nM, read-out: CDK1 Tyr15 Phosphorylation EC50 (IC50). As for the experimental part:
ACHN renal cell carcinoma cell line (ATCC) was cultured in Minimum Essential Medium Eagle supplemented with 10% fetal calf serum (Sigma), 1% Penicillin-Streptomycin and 10 mM HEPES buffer (HyClone). Cell cultures were kept in a humidified incubator at 37° C. and 5% CO2. Cells were routinely tested for Mycoplasma contamination.
High-content imaging of ACHN renal cell carcinoma cells was used for quantification of CDK1 phosphorylated on tyrosine 15 by immunofluorescence (“IF”). 20 000 cells per well were seeded in tissue culture treated 96 well plates and treated with compounds at concentrations ranging from 7 to 5000 nM for 4 h. Cells were fixated for 15 minutes in 4% paraformaldehyde solution, washed in PBS and permeabilized using 0.2% Triton X-100. Blocking was performed for 1 h at RT using Blocker FL Fluorescent Blocking Buffer (Thermo Scientific), thereafter cells were incubated with primary antibody (rabbit anti-pCDK1 Y^15, #4539, Cell Signaling Technology) at 4° C. ON. Alexa Fluor Plus 647 labelled goat anti-rabbit (A32733. Thermo Scientific) was used as secondary antibody. After washing in PBS, nuclei were stained with DAPI solution for 10 min at RT, protected from light. Cells were imaged using an ImageXpress Pico automated imaging system and CellReporter Xpress software (Molecular Devices). The percentage cells with nuclear positivity for pCdk1 Y^15 compared to DMSO control was determined for each well and drug dose response curves and EC50 values were calculated and visualized using GraphPad Prism.

T1 sequence (P30291 whole entry): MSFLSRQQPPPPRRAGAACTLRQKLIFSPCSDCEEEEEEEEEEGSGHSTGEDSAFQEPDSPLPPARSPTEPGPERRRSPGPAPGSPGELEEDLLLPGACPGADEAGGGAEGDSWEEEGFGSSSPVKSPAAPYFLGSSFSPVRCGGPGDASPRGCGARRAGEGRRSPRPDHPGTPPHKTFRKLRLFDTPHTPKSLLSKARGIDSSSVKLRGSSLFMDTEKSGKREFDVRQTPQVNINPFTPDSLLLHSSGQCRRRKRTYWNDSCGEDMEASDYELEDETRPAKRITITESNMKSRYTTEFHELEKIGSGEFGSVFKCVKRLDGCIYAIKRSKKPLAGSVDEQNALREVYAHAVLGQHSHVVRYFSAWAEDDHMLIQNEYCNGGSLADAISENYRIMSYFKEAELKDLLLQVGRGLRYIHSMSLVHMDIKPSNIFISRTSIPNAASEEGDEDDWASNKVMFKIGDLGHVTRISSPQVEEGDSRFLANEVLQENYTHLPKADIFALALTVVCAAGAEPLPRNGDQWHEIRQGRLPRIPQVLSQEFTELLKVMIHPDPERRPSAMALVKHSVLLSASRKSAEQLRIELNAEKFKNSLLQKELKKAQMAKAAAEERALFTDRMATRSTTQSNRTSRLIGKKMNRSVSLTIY

On to `CN1CCN(c2ccc(Nc3ncc(C(=O)Nc4c(Cl)cccc4Cl)c(OCC4CCCO4)n3)cc2)CC1` (stereo not drawn) [Compound 105], for which the half-inhibitory concentration (IC50) in test [1] is ≤ 0.01 µM. Besides, the EC50 in test [2] was > 1 µM.
With `CCCOc1cc(Nc2ncc(C(=O)Nc3c(Cl)cccc3Br)c(OC)n2)ccc1C1CCN(C)CC1` [Compound 218, N-(2-bromo-6-chlorophenyl)-4-methoxy-2-((4-(1-methylpiperidin-4-yl)-3-propoxyphenyl)amino)pyrimidine-5-carboxamide], the IC50 in test [1] was ≤ 0.01 µM. The EC50 in test [2] was in the range of 0.1 to 0.5 µM.
In the case of `COc1nc(Nc2ccc(C3CCN(C)CC3)c(C)c2)ncc1C(=O)Nc1c(C)ccnc1C` [Compound 112, N-(2,4-dimethylpyridin-3-yl)-4-methoxy-2-{[3-methyl-4-(1-methylpiperidin-4-yl)phenyl]amino}pyrimidine-5-carboxamide], in test [1], the IC50 lay in the range of 0.01 to 0.1 µM.
For `COc1nc(Nc2ccc([C@H]3CCCNC3)c(C)c2)ncc1C(=O)Nc1c(Cl)cccc1Br` [Compound 198, (R)—N-(2-bromo-6-chlorophenyl)-4-methoxy-2-((3-methyl-4-(piperidin-3-yl)phenyl)amino)pyrimidine-5-carboxamide], the IC50 in test [1] is ≤ 0.01 µM. Besides, the EC50 in test [2] fell in the range of 0.1 to 0.5 µM.
In the same order, the values of `COc1nc(Nc2ccc(C3CCN(C)CC3)c(C)c2)ncc1C(=O)Nc1c(F)cccc1Br` [Compound 136, N-(2-bromo-6-fluorophenyl)-4-methoxy-2-((3-methyl-4-(1-methylpiperidin-4-yl)phenyl)amino)pyrimidine-5-carboxamide] are ≤ 0.01 µM and 0.1 to 0.5 µM.
For the compound `COc1nc(Nc2ccc(C3CCN(C)CC3)c(C)c2)ncc1C(=O)Nc1c(C)cccc1Cl` [Compound 106, N-(2-chloro-6-methylphenyl)-4-methoxy-2-((3-methyl-4-(1-methylpiperidin-4-yl)phenyl)amino)pyrimidine-5-carboxamide], the half-maximal inhibitory concentration (IC50) in test [1] is ≤ 0.01 µM. Also, in test [2], the EC50 was in the range of 0.1 to 0.5 µM.
With `COc1nc(Nc2ccc(N3CCNCC3)c(C)c2)ncc1C(=O)Nc1c(Cl)cccc1Cl` [Compound 162], in test [1], the IC50 was ≤ 0.01 µM. Moreover, the EC50 in test [2] lay in the range of 0.1 to 0.5 µM.
`COc1nc(Nc2cnn(C[C@H]3CCNC3)c2)ncc1C(=O)Nc1c(Cl)cccc1Cl` [Compound 165]: the IC50 in test [1] lay within 0.01 to 0.1 µM. Besides, in test [2], the EC50 was > 1 µM.
`COc1nc(Nc2ccc(C3CCN(C)CC3)c(C)c2)ncc1C(=O)Nc1ccccc1C#N` [Compound 115, N-(2-cyanophenyl)-4-methoxy-2-((3-methyl-4-(1-methylpiperidin-4-yl)phenyl)amino)pyrimidine-5-carboxamide]: in test [1], the 50% inhibitory concentration (IC50) fell in the range of 0.01 to 0.1 µM.
For the compound `COc1nc(Nc2ccc(C3CCN(C)CC3)c(C)c2)ncc1C(=O)Nc1ccccc1Cl` [Compound 109, N-(2-chlorophenyl)-4-methoxy-2-((3-methyl-4-(1-methylpiperidin-4-yl)phenyl)amino)pyrimidine-5-carboxamide], the IC50 in test [1] is 0.01 to 0.1 µM.
Regarding `COc1nc(Nc2ccc(C3CCN(C)CC3)c(C)c2)ncc1C(=O)Nc1cc([N+](=O)[O-])ccc1C` [Compound 170], the “Wee1A kinase Binding IC50” value in test [1] is “C (IC50 greater than 100 nM but less than or equal to 5.00 nM)”.
Turning to `COc1nc(Nc2cnn(C[C@@H]3CCCN3)c2)ncc1C(=O)Nc1c(Cl)cccc1Cl` [Compound 160], the IC50 in test [1] is 0.01 to 0.1 µM.
Still for that read-out and setting: for `COc1nc(Nc2ccc(C3CCN(C)CC3)nc2)ncc1C(=O)Nc1c(Cl)cccc1Cl` [Compound 183, N-2,6-dichlorophenyl-4-methoxy-2-[6-(1-methyl-4-piperidyl)-3-pyridylamino]-5-pyrimidinecarboxamide] the value was 0.01 to 0.1 µM; for `C#Cc1ccccc1NC(=O)c1cnc(Nc2ccc(C3CCN(C)CC3)c(C)c2)nc1OC` [Compound 126, N-(2-ethynylphenyl)-4-methoxy-2-((3-methyl-4-(1-methylpiperidin-4-yl)phenyl)amino)pyrimidine-5-carboxamide], 0.01 to 0.1 µM.
`COc1nc(Nc2ccc(C3CCN(C)CC3)c(C)c2)ncc1C(=O)Nc1cc(NC(C)=O)ccc1C` [Compound 169]: the “Wee1A kinase Binding IC50” value in test [1] is given as “C (IC50 greater than 100 nM but less than or equal to 5.00 nM)”.
For `COc1nc(Nc2cnn(C[C@H]3CCCN3)c2)ncc1C(=O)Nc1c(Cl)cccc1Cl` [Compound 159], the IC50 in test [1] fell in the range of 0.01 to 0.1 µM.
As for `COc1nc(Nc2ccc(C3CCN(C)CC3)c(C)c2)ncc1C(=O)Nc1c(C)ccnc1Cl` [Compound 117, N-(2-chloro-4-methylpyridin-3-yl)-4-methoxy-2-{[3-methyl-4-(1-methylpiperidin-4-yl)phenyl]amino}pyrimidine-5-carboxamide], the IC50 in test [1] is 0.01 to 0.1 µM.
On to `COc1nc(Nc2ccc(C3CCN(C)CC3)c(C)c2)ncc1C(=O)Nc1cnccc1Cl` [Compound 139, N-(4-chloropyridin-3-yl)-4-methoxy-2-((3-methyl-4-(1-methylpiperidin-4-yl)phenyl)amino)pyrimidine-5-carboxamide], for which, in test [1], the IC50 lay in the range of 0.01 to 0.1 µM.
Still for that read-out and setting: next, `COc1nc(Nc2ccc(-c3ccn(C)c3)c(C)c2)ncc1C(=O)Nc1c(Cl)cccc1Br` [Compound 191, N-(2-bromo-6-chlorophenyl)-4-methoxy-2-((3-methyl-4-(1-methyl-1H-pyrrol-3-yl)phenyl)amino)pyrimidine-5-carboxamide]: 0.01 to 0.1 µM.
`COc1nc(Nc2ccc(C3CCN(C)CC3)c(C)c2)ncc1C(=O)Nc1cc(C#N)ccc1Cl` [Compound 131, N-(2-chloro-5-cyanophenyl)-4-methoxy-2-((3-methyl-4-(1-methylpiperidin-4-yl)phenyl)amino)pyrimidine-5-carboxamide]: the “Wee1A kinase Binding IC50” value in test [1] was “C (IC50 greater than 100 nM but less than or equal to 5.00 nM)”.
With `COc1nc(Nc2ccc(C(=O)N3CCN(C)CC3)c(C)c2)ncc1C(=O)Nc1c(Cl)cccc1Cl` [Compound 168], the IC50 in test [1] lay in the range of 0.01 to 0.1 µM.
Take `COc1nc(Nc2ccc([C@H]3CCCN(C)CC3)c(C)c2)ncc1C(=O)Nc1c(Cl)cccc1Br` [Compound 208]: in test [1], the IC50 was ≤ 0.01 µM.
On the same count and under the same terms, for `COc1nc(Nc2ccc(C3CCN(C)CC3)c(C)c2)ncc1C(=O)Nc1cccc(O)c1` [Compound 118] the value was 0.01 to 0.1 µM.
For the compound `CN(C)CCCOc1nc(Nc2ccc(N3CCN(C)CC3)cc2)ncc1C(=O)Nc1c(Cl)cccc1Cl` [Compound 124, N-(2,6-dichlorophenyl)-4-(3-(dimethylamino)propoxy)-2-((4-(4-methylpiperazin-1-yl)phenyl)amino)pyrimidine-5-carboxamide], in test [1], the “Wee1A kinase Binding IC50” value is reported as “C (IC50 greater than 100 nM but less than or equal to 5.00 nM)”.
For `COc1nc(Nc2ccc(OCCN3CCOCC3)c(C)c2)ncc1C(=O)Nc1c(Cl)ccc(O)c1C` [Compound 151, N-(6-chloro-3-hydroxy-2-methylphenyl)-4-methoxy-2-((3-methyl-4-(2-morpholinoethoxy)phenyl)amino)pyrimidine-5-carboxamide], the half-maximal effective concentration (EC50) in test [2] is > 1 µM.
Regarding `CN1CCN(c2ccc(Nc3ncc(C(=O)Nc4c(Cl)cccc4Cl)c(OCC(F)(F)F)n3)cc2)CC1` [Compound 103, N-(2,6-dichlorophenyl)-2-{[4-(4-methylpiperazin-1-yl)phenyl]amino}-4-(2,2,2-trifluoroethoxy)pyrimidine-5-carboxamide], in test [1], the IC50 lay within 0.01 to 0.1 µM.
